Test results: article PMC9544171, “Glucose‐dependent insulinotropic polypeptide receptor antagonist treatment causes a reduction in weight gain in ovariectomised high fat diet‐fed mice” (British Journal of Pharmacology, 2022)
Where a SMILES comes first, the peptide text is derived from it. The star is where a group is joined. C16 diacid = O=C(O)CCCCCCCCCCCCCCC(=O)*

What was measured:
mouse GLP‐1 receptor = target: T1, mouse GLP‐1 receptor (Mus musculus, UniProt O35659); test: cAMP accumulation, agonism in transfected COS‐7 cells; assay type: cell-based; conditions: increasing concentrations, COS‐7, n = 5
T1 construct: host or cells: COS-7
T1 sequence (O35659 22-463): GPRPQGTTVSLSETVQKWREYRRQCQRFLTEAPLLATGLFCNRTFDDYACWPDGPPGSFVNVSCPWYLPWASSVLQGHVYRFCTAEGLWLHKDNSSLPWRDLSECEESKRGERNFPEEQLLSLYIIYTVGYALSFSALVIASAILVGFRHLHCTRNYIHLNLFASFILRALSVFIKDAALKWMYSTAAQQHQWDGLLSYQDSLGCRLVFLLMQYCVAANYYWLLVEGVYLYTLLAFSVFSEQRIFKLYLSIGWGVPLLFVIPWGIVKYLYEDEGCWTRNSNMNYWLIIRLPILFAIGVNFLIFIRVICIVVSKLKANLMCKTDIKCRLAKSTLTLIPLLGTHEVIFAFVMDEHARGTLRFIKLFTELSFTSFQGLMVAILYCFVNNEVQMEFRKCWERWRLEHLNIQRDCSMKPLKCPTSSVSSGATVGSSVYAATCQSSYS
Protocol: COS‐7 cells were cultured at 10% CO2 and 37°C in Dulbecco's Modified Eagle Medium 1885 supplemented with 10% foetal bovine serum, 2‐mM glutamine, 180‐units ml^−1 penicillin and 45‐g·ml^−1 streptomycin. […] A second set of cells was transiently transfected with either mouse GLP‐1 or GLP‐2 receptor. Following the day after transfection, the cells were seeded in white 96‐well plates with a density of 35.000 cells per well. The next day the assay was initiated by washing the cells with HEPES buffered saline (HBS) followed by an incubation step with HBS and 1‐mM 3‐isobutyl‐1‐methylxanthine for 30 min at 37°C. For agonist studies, the ligands were then added and incubated for an additional 30 min at 37°C. To test for antagonistic properties, the cells were first preincubated for 10 min with the antagonist with subsequent addition of the agonist and incubated for an additional 20 min. The HitHunter® cAMP assay (Eurofins DiscoverX, Fremont, USA) was carried out according to the manufacturer's protocol. Luminescence was measured by PerkinElmer™ Envision 2014 Multilabel Reader.
COS‐7 cells were transiently transfected with (a) mouse GLP1‐R and (b) mouse GLP‐2 R and assayed for cAMP accumulation. […] Data are shown as mean ± SE from n = 5 independent experiments

Female C57Bl6/J mice = test: Intraperitoneal glucose tolerance test, inhibition of exogenous GIP; assay type: in vivo, mouse
Protocol: To assess the biological activity of mGIPAnt‐1, we performed an intraperitoneal glucose tolerance test. Mice were fasted for 4 h and given either mGIPAnt‐1 ([…]; s.c.) or vehicle at t = −90 min. Group sizes were as follows:‐ Vehicle + Vehicle, n = 10, Vehicle + GIP, n = 12 and mGIPAnt‐1 + GIP, n = 8. Varying group numbers were due to unsuccessful administration of one of the four compounds as confirmed by measurements of plasma concentrations. At t = −10 all mice were given an intraperitoneal (i.p.) injection with dipeptidyl peptidase‐4 (DPP‐4) inhibitor valine pyrrolidide followed by s.c. injection of either 25 nmol·kg^−1 GIP (Synthetic mouse GIP(1‐42) or vehicle. At t = 0 min, mice received an i.p. injection with 0.5‐g·kg^−1 glucose. Blood glucose was measured from the tail vein using a hand‐held glucometer (Accu‐Chek Mobile, Roche, Basel, Switzerland) at t = 0, 10, 30, 45, 60, 120 and 180 min. Retro‐orbital blood samples (50 μl) were taken using EDTA coated glass capillaries (Vitrex, Vasekær, Denmark) at t = 0, 15, 30 and 60, 120 and 180 min and centrifuged at 3500g, 20 min, 4°C. Plasma was transferred into Eppendorf tubes on dry ice and stored at −20°C for later insulin measurements.
To facilitate comparisons of assay outputs (cAMP assays), the results (of duplicate measurements) were normalized, with the response to 10 pM of GIP(1‐42) set as 100%. All ligand concentrations are reported as log‐transformed. The IC50 log values can be found in Figure 1. In Figure 3c, we have subtracted glucose levels from baseline to show the net differences in glucose levels in our different treatment groups.

[1] = tested on: Female ovariectomised C57Bl6/J mice; test: HFD study in ovariectomised mice, body weight and composition, 8 weeks; assay type: in vivo, mouse
Protocol: Prior to bilateral ovariectomy surgery and once daily for 48 h following, mice received analgesics through s.c. injection of carprofen (Rimadyl; 5 mg·kg^−1). Anaesthesia was induced in an induction chamber with 5% isoflurane and maintained with 2% isoflurane through a nose cone during the procedure. Proper respiration was ensured with a flow of oxygen through the nose cone and body temperature was maintained at 37°C by placing the mice on a heating pad. Mice were placed in a prone position on a sterile surgery pad and the area of incision was shaved and sterilized with 70% ethanol. Two dorsal‐lateral incisions were made and the ovary and attached fat pad were individually pulled out of the abdominal cavity. The fallopian tubes were ligated and the ovaries were dissected, then the fat pad was carefully placed back in the abdominal cavity. The skin incision was closed using wound clips (Reflex, Alzet, Cupertino, CA, USA). In half of the animals, a microtransponder (Datamars, Lamone, Switzerland) was inserted and animals were placed in an HM‐2 cage with the intention to measure food intake (MBrose, Faaborg, Denmark) and left to recover and acclimatize for a week. The remaining animals were placed back in their home cages to recover for a week. The division of mice into HM‐2 cages and home cages was randomized. Uterine atrophy was confirmed in all mice upon termination of the study, indicating successful ovariectomy.
(§1) A week after ovariectomy, at 10 weeks of age, animals were randomized into groups and placed on a 60 kcal% HFD (HFD, D12492, Research Diets, New Brunswick, NJ, USA) or a control diet (10 kcal% fat, D12450J, Research Diets) for 8 weeks. Group sizes were as follows: Vehicle/control diet, n = 12; mGIPAnt‐1/control diet, n = 12; Vehicle/HFD, n = 11; mGIPAnt‐1/HFD, n = 12. The reduction of animal numbers in group Vehicle/HFD was due to unexpected loss of an animal. Animals received a daily s.c. injection at 4:30 PM with mGIPAnt‐1 (300‐nmol·kg^−1) or vehicle. Body weight and body composition were assessed weekly (LF90II body composition analyzer, Bruker, Billerica, MA, USA). On the final experimental day, animals were anaesthetized with an intraperitoneal injection of 90 mg·kg^−1 ketamine and 10‐mg·kg^−1 xylazine. The microchip was quickly removed from HM‐2 cage animals and a final body composition measurement was performed on all animals. A terminal retro‐orbital blood sample was taken, mice were killed through cervical dislocation and tissues were quickly dissected and weighed.

[2] = tested on: Female ovariectomised C57Bl6/J mice; test: Terminal plasma adiponectin, triglyceride and glycerol; assay type: in vivo, mouse; conditions: 8 weeks of 300 nmol·kg−1 s.c. daily
Description: as §1
Insulin levels in intraperitoneal glucose tolerance test and oral glucose tolerance test plasma samples were measured using a mouse insulin ELISA (catalogue no. 10‐1247‐10; Mercodia AB, Uppsala, Sweden). Adiponectin levels in terminal plasma samples were measured using a mouse adiponectin ELISA kit (catalogue no. 80569, Crystal Chem, Elk Grove Village, IL, USA). Adiponectin samples were carefully diluted in kit‐specific assay buffer. The manufacturer's instructions were followed closely.
Triglyceride and free glycerol levels in terminal plasma samples were determined using a triglyceride and free glycerol kit (TR0100‐1KT, Sigma‐Aldrich, St. Louis, MO, USA).

## CC[C@H](C)[C@H](NC(=O)[C@H](CO)NC(=O)[C@H](Cc1ccc(O)cc1)NC(=O)[C@H](CC(=O)O)NC(=O)[C@H](CO)NC(=O)[C@@H](NC(=O)[C@H](Cc1ccccc1)NC(=O)[C@@H](NC(=O)CNC(=O)[C@@H](N)CCC(=O)O)[C@@H](C)O)[C@@H](C)CC)C(=O)N[C@@H](C)C(=O)N[C@@H](CCSC)C(=O)N[C@@H](CC(=O)O)C(=O)N[C@@H](CCCCN)C(=O)N[C@H](C(=O)N[C@@H](CCCCNC(=O)CCCCCCCCCCCCCCC(=O)O)C(=O)N[C@@H](CCC(N)=O)C(=O)N[C@@H](CCC(N)=O)C(=O)N[C@@H](CC(=O)O)C(=O)N[C@@H](Cc1ccccc1)C(=O)N[C@H](C(=O)N[C@@H](CC(N)=O)C(=O)N[C@@H](Cc1c[nH]c2ccccc12)C(=O)N[C@@H](CC(C)C)C(=O)N[C@@H](CC(C)C)C(=O)N[C@@H](C)C(=O)N[C@@H](CCC(N)=O)C(=O)N[C@@H](CCCCN)C(=O)NCC(=O)N[C@@H](CCCCN)C(=O)N[C@@H](CCCCN)C(=O)N[C@@H](CC(N)=O)C(=O)N[C@@H](CC(=O)O)C(=O)N[C@@H](Cc1c[nH]c2ccccc12)C(=O)N[C@@H](CCCCN)C(=O)N[C@@H](Cc1c[nH]cn1)C(=O)N[C@@H](CC(N)=O)C(=O)O)C(C)C)[C@@H](C)CC [mGIPAnt‐1] (H-EGTFISDYSIAMDKIK(C16 diacid)QQDFVNWLLAQKGKKNDWKHN-OH)
Mouse GLP‐1 receptor
  activation of mouse GLP‐1 receptor (cAMP): does not induce activation
Female C57Bl6/J mice; mGIPAnt‐1 25 μmol·kg−1 s.c. at t = −90 min, 4 h fasted mice, versus the other two groups
  fasting (baseline) blood glucose at t = 0 of IPGTT: significant decrease in fasting blood glucose levels
Female C57Bl6/J mice; mGIPAnt‐1 25 μmol·kg−1 s.c. t = −90 min, GIP 25 nmol·kg−1 s.c. and val‐pyr t = −10 min, glucose 0.5 g·kg−1 i.p., n = 8–12
  baseline‐subtracted glucose curve during IPGTT: did not differ
Female C57Bl6/J mice; t = 120 and 180 min, same dosing as glucose curve
  glucose levels relative to baseline late in IPGTT: glucose levels do not drop below baseline
[1]; 300 nmol·kg−1 s.c. daily, 8 weeks
  final lean body mass: not affected
[1]; 300 nmol·kg−1 s.c. daily, 8 weeks, 60 kcal% HFD, versus Vehicle/HFD, n = 11–12
  body weight, HFD: body weight in the control, HFD group was significantly higher compared to the mGIPAnt‐1/HFD group
[1]; 300 nmol·kg−1 s.c. daily, 8 weeks, control diet, n = 12
  absolute body weight, control diet: not affected
[1]; 300 nmol·kg−1 s.c. daily, 8 weeks, two‐way ANOVA
  total body weight gain, overall treatment effect: reducing total body weight gain
[1]; at 6 and 8 weeks, 300 nmol·kg−1 s.c. daily, versus Control/HFD, n = 6
  body fat percentage, HFD: Control/HFD animals significantly increased body fat percentage compared to mGIPAnt‐1/HFD animals
[1]; terminal
  BAT weight: not affected
  eWAT weight, control diet: did not affect
  iWAT weight, control diet: did not affect
  liver weight: not affected
[1]; terminal, versus Vehicle/HFD
  eWAT weight, HFD: reduced
  iWAT weight, HFD: reduced
[2]
  terminal plasma glycerol: did not significantly affect
  terminal plasma triglyceride: did not significantly affect
[2]; ELISA
  terminal plasma adiponectin: did not significantly affect
[2]; did not reach significance
  terminal plasma glycerol, HFD versus Vehicle/HFD: trend towards increased glycerol levels
